Data reported in patent publication US10851073B2, “Protein tyrosine phosphatase inhibitors and methods of use thereof” (Calico Life Sciences LLC, priority 2019, dated 2020).
pIC50: −log10 of the molar value. Like-named read-outs stand apart in the source and are kept apart here.

Assays:
[1] = biological target: T1, His tagged PTPN2 (TC45) protein (Homo sapiens, UniProt P17706); assay: Mobility shift assay used to determine potency of PTPN2 inhibitors; assay type: biochemical; conditions: enzyme 0.5 nM, substrate 2 μM; read-out: PTPN2 MSA IC50
T1 construct: made in house
T1 sequence (P17706 with tags, fused parts or gaps isoform P17706-2): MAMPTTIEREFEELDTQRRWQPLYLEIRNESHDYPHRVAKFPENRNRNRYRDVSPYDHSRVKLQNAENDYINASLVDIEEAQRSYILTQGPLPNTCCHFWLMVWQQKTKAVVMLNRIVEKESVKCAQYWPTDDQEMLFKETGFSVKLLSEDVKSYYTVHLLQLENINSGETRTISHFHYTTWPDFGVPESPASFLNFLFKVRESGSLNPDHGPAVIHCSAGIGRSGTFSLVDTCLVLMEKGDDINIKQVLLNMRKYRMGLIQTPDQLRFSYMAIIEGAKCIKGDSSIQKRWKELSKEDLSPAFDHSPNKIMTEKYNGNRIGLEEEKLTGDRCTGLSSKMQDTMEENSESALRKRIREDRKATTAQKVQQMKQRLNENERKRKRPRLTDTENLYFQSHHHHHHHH
Procedure: Example 227: Mobility Shift Assay Used to Determine Potency of PTPN2 Inhibitors
Compound activity was determined using in house His tagged PTPN2 (TC45) protein (SEQ ID NO: 1) in an in vitro enzymatic reaction. The enzymatic assay used to determine activity was a mobility shift assay using a LabChip EZ Reader by Caliper Life Sciences. The enzymatic reaction was carried out in assay buffer (50 mM HEPES pH 7.5, 1 mM EGTA, 10 mM EDTA, 0.01% Tween® 20, and 2 mM DTT). The compounds were dispensed on a white 384 well ProxiPlate™ (PerkinElmer Catalog #6008289) plate using the Labcyte Echo at varying concentrations (12 point, 1:3 dilution). The enzyme (at 0.5 nM) was incubated with compound for 10 minutes at room temperature. Then the substrate (phosphorylated insulin receptor probe sequence: ((OG488)-(NH—CH2—CH2—O—CH2—CH2—O—CH2—CO)-T-R-D-I-(PY)-E-T-D-Y-Y-R-K-K-NH2) (SEQ ID NO: 2) was added at 2 μM to the plates and incubated for another 10 minutes at room temperature. Finally, a quench solution (water and 4-bromo-3-(2-oxo-2-propoxyethoxy)-5-(3-{[1-(phenylmethanesulfonyl)piperidin-4-yl]amino}phenyl)thiophene-2-carboxylic acid) was added to the plates, which were then run on the EZ Reader (excitation 488 nm, emission 530 nm) to measure % conversion (the amount of phosphorylated substrate which was de-phosphorylated by PTPN2). […] The % inhibition was then used to calculate the IC50 values.

[2] = tested on: B16F10 mouse melanoma cells; assay: B16F10 IFNγ-induced cellular growth inhibition assay; assay type: cell-based; conditions: B16-F10, with 0.5 ng/mL IFNγ
Procedure: Example 229: B16F10 IFNγ-Induced Cellular Growth Inhibition Assay B16F10 mouse melanoma cells (ATCC Cat^# CRL-6475, Manassas, Va.) were seeded at a density of 500 cells per well in a 384-well clear bottom plate (Corning Cat^#3765, Corning, N.Y.) in 25 μL total volume of DMEM+10% FBS (Sigma Cat^# D6429 and Sigma Cat^# F4135, St. Louis, Mo.). Cells were allowed to adhere overnight at 37° C.+5% CO2. On the following day, 12.5 μL of mouse IFNγ (RD systems Cat^#485-MI/CF, Minneapolis, Minn.) was added to half of the plate (columns 13-24) at a concentration of 2 ng/mL for a final assay concentration of 0.5 ng/mL of IFNγ. Media only (12.5 μL of DMEM+10% FBS) was added to the remainder of the plate (columns 1-12). Next, compounds resuspended in DMSO (Sigma Cat^# D2650) at 100 mM were diluted in semi-log dilutions in DMSO ranging from 100 mM to 0.001 mM and DMSO only controls were included. The compound/DMSO dilutions were further diluted 1:250 in DMEM+10% FBS, and 12.5 μL of these dilutions were added in triplicates to cells of both treatment arms (with and without IFNγ). Final compound concentrations ranged from 100 μM to 0.001 μM with a final DMSO concentration of 0.1%. Compounds were only dosed in the inner 240 wells, avoiding the outer 2-well perimeter of the plate to minim/ze edge effects. Finally, the plate was loaded into an IncuCyte® S3 Live Cell Analysis System (Essen Bioscience-Sartorius, Ann Arbor, Mich.) maintained in a 37° C.+5% CO2 incubator, allowed to equilibrate for 2 hours, and imaged every 6 hours for 5 days. Confluence over time for compound dilutions in the presence and absence of IFNγ was measured. Growth inhibition values were obtained when the “DMSO/no IFNγ” control reached confluence >95%. At these time points, for each compound the percent growth inhibition at every compound dose level was calculated relative to the “DMSO/with IFNγ” control and used to determine the IC50.

SMILES	pIC50 ([2]; read-out: B16F10 GI IC50)	other results
CC(C)CCCC1CCc2cc(O)c(N3CC(=O)NS3(=O)=O)c(F)c2C1 (centres unmarked) [Compound 323, 5-[1-fluoro-3-hydroxy-7-(4-methylpentyl)-5,6,7,8-tetrahydronaphthalen-2-yl]-1λ^6,2,5-thiadiazolidine-1,1,3-trione]	–	pIC50 [1]: 8.00 to 9.00
COC(CCNC1CCc2cc(O)c(N3CC(=O)NS3(=O)=O)c(F)c2C1)C(F)(F)F (centres unmarked) [Compound 152, 5-{1-fluoro-3-hydroxy-7-[(4,4,4-trifluoro-3-methoxybutyl)amino]-5,6,7,8-tetrahydronaphthalen-2-yl}-1λ^6,2,5-thiadiazolidine-1,1,3-trione]	–	pIC50 [1]: 8.00 to 9.00
O=C1CN(c2c(O)cc3c(c2F)CC(NCC2CC2)CC3)S(=O)(=O)N1 (centres unmarked) [Compound 103, 5-{7-[(cyclopropylmethyl)amino]-1-fluoro-3-hydroxy-5,6,7,8-tetrahydronaphthalen-2-yl}-1λ^6,2,5-thiadiazolidine-1,1,3-trione]	5.00 to 6.00	pIC50 [1]: 7.00 to 8.00
NCC1Cc2cc(O)c(N3CC(=O)NS3(=O)=O)c(F)c2C1 (centres unmarked) [Compound 267, 5-[2-(aminomethyl)-4-fluoro-6-hydroxy-2,3-dihydro-1H-inden-5-yl]-1λ^6,2,5-thiadiazolidine-1,1,3-trione 2,2,2-trifluoroacetate]	–	pIC50 [1]: 7.00 to 8.00
Cc1nn(C)c(C)c1CCN1CCc2cc(O)c(N3CC(=O)NS3(=O)=O)c(F)c2C1 [Compound 209, 5-{8-fluoro-6-hydroxy-2-[2-(1,3,5-trimethyl-1H-pyrazol-4-yl)ethyl]-1,2,3,4-tetrahydroisoquinolin-7-yl}-1λ^6,2,5-thiadiazolidine-1,1,3-trione]	5.00 to 6.00	–
O=C1CN(c2c(O)cc3c(c2F)CN(CCCC2CCOCC2)CC3)S(=O)(=O)N1 [Compound 196, 5-{8-fluoro-6-hydroxy-2-[3-(oxan-4-yl)propyl]-1,2,3,4-tetrahydroisoquinolin-7-yl}-1λ^6,2,5-thiadiazolidine-1,1,3-trione]	5.00 to 6.00	–
CC(C)CCNC(=O)N1CCc2cc(O)c(N3CC(=O)NS3(=O)=O)c(F)c2C1 [Compound 205, 8-fluoro-6-hydroxy-N-(3-methylbutyl)-7-(1,1,4-trioxo-1λ^6,2,5-thiadiazolidin-2-yl)-3,4-dihydroisoquinoline-2(1H)-carboxamide]	5.00 to 6.00	–
O=C1CN(c2c(O)cc3c(c2F)CCCC3)S(=O)(=O)N1 [Compound 108, 5-(1-fluoro-3-hydroxy-5,6,7,8-tetrahydronaphthalen-2-yl)-1λ^6,2,5-thiadiazolidine-1,1,3-trione]	4.00 to 5.00	–
O=C1CN(c2c(O)cc3c(c2F)CN(C(=O)NCC2CCCO2)CC3)S(=O)(=O)N1 (centres unmarked) [Compound 263, 8-fluoro-6-hydroxy-N-[(oxolan-2-yl)methyl]-7-(1,1,4-trioxo-1λ^6,2,5-thiadiazolidin-2-yl)-3,4-dihydroisoquinoline-2(1H)-carboxamide]	–	pIC50 [1]: 7.00 to 8.00
O=C1CN(c2c(O)cc3c(c2F)CN(CCCCC(F)(F)F)CC3)S(=O)(=O)N1 [Compound 153, 5-[8-fluoro-6-hydroxy-2-(5,5,5-trifluoropentyl)-1,2,3,4-tetrahydroisoquinolin-7-yl]-1λ^6,2,5-thiadiazolidine-1,1,3-trione]	< 4.00	–
O=C1CN(c2c(O)cc3c(c2F)CN(Cc2ccccn2)CC3)S(=O)(=O)N1 [Compound 184, 5-{8-fluoro-6-hydroxy-2-[(pyridin-2-yl)methyl]-1,2,3,4-tetrahydroisoquinolin-7-yl}-1λ^6,2,5-thiadiazolidine-1,1,3-trione]	4.00 to 5.00	–
O=C1CN(c2c(O)cc3ccc(NCCC4CC4)cc3c2F)S(=O)(=O)N1 [Compound X]	–	pIC50 ([2]; read-out: B16F10 Growth Inhibition IC50): 5.39
O=C1CN(c2c(O)cc3c(c2F)CCCO3)S(=O)(=O)N1 [Compound 111, 5-(5-fluoro-7-hydroxy-3,4-dihydro-2H-1-benzopyran-6-yl)-1λ^6,2,5-thiadiazolidine-1,1,3-trione]	4.00 to 5.00	–
O=C1CN(c2c(O)cc3c(c2F)CN(CC[C@H]2C[C@@H](OC(F)(F)F)C2)CC3)S(=O)(=O)N1 [Compound 231, 5-(8-fluoro-6-hydroxy-2-{2-[(1s,3r)-3-(trifluoromethoxy)cyclobutyl]ethyl}-1,2,3,4-tetrahydroisoquinolin-7-yl)-1λ^6,2,5-thiadiazolidine-1,1,3-trione]	5.00 to 6.00	–
O=C1CN(c2c(O)cc3c(c2F)CN(CCCCCC(F)(F)F)CC3)S(=O)(=O)N1 [Compound 161, 5-[8-fluoro-6-hydroxy-2-(6,6,6-trifluorohexyl)-1,2,3,4-tetrahydroisoquinolin-7-yl]-1λ^6,2,5-thiadiazolidine-1,1,3-trione]	4.00 to 5.00	–
O=C1CN(c2c(O)cc3c(c2F)C[C@H](NCCC2CC(F)(F)C2)CC3)S(=O)(=O)N1 [Compound 202, 5-[(7R)-7-{[2-(3,3-difluorocyclobutyl)ethyl]amino}-1-fluoro-3-hydroxy-5,6,7,8-tetrahydronaphthalen-2-yl]-1λ^6,2,5-thiadiazolidine-1,1,3-trione]	> 6.00	–

Continued, in another order:

pIC50 ([2]; read-out: B16F10 GI IC50)	SMILES	other results
< 4.00	N[C@H](CCC1CCCCC1)C(=O)N1CCc2cc(O)c(N3CC(=O)NS3(=O)=O)c(F)c2C1 [Compound 250, 5-{2-[(2R)-2-amino-4-cyclohexylbutanoyl]-8-fluoro-6-hydroxy-1,2,3,4-tetrahydroisoquinolin-7-yl}-1λ^6,2,5-thiadiazolidine-1,1,3-trione]	–
5.00 to 6.00	Cc1nn(CC(F)F)c(C)c1CCN1CCc2cc(O)c(N3CC(=O)NS3(=O)=O)c(F)c2C1 [Compound 253, 5-(2-{2-[1-(2,2-difluoroethyl)-3,5-dimethyl-1H-pyrazol-4-yl]ethyl}-8-fluoro-6-hydroxy-1,2,3,4-tetrahydroisoquinolin-7-yl)-1λ^6,2,5-thiadiazolidine-1,1,3-trione]	–
4.00 to 5.00	Cn1cc(CCN2CCc3cc(O)c(N4CC(=O)NS4(=O)=O)c(F)c3C2)cn1 [Compound 252, 5-{8-fluoro-6-hydroxy-2-[2-(1-methyl-1H-pyrazol-4-yl)ethyl]-1,2,3,4-tetrahydroisoquinolin-7-yl}-1λ^6,2,5-thiadiazolidine-1,1,3-trione]	–
< 4.00	Cc1noc(C)c1CCN1Cc2c(cc(O)c(N3CC(=O)NS3(=O)=O)c2F)C(F)(F)C1 [Compound 306, 5-{2-[2-(3,5-dimethyl-1,2-oxazol-4-yl)ethyl]-4,4,8-trifluoro-6-hydroxy-1,2,3,4-tetrahydroisoquinolin-7-yl}-1λ^6,2,5-thiadiazolidine-1,1,3-trione]	–
5.00 to 6.00	CCn1nc(C)c(CCN2CCc3cc(O)c(N4CC(=O)NS4(=O)=O)c(F)c3C2)c1C [Compound 276, 5-{2-[2-(1-ethyl-3,5-dimethyl-1H-pyrazol-4-yl)ethyl]-8-fluoro-6-hydroxy-1,2,3,4-tetrahydroisoquinolin-7-yl}-1λ^6,2,5-thiadiazolidine-1,1,3-trione]	–
5.00 to 6.00	C[C@H](N)CN1CCc2cc(O)c(N3CC(=O)NS3(=O)=O)c(F)c2C1 [Compound 245, 5-{2-[(2S)-2-aminopropyl]-8-fluoro-6-hydroxy-1,2,3,4-tetrahydroisoquinolin-7-yl}-1λ^6,2,5-thiadiazolidine-1,1,3-trione]	–
